Experimental data as given in patent publication US20230107642A1 (Erasca, Inc., priority 2020, published 2023).

target: T1, Cys12 of the KRAS 4B G12C protein (Homo sapiens, UniProt P01116, G12C); assay: In vitro covalent adduct formation (CAF) assay, LC-MS intact mass; assay type: binding; settings: 10 uM compound, 60 min incubation
T1 construct: This protein contained 188 amino acids in total, including an N-terminal 6-Histidine tag; made in house; host or cells: E. coli BL21
Protocol: This Example provides a protocol for assessing covalent adduct formation (CAF) between the compounds of the present application and KRAS.
In vitro covalent adduct formation assay: Covalent adduct formation (CAF) reactions between Cys12 of the KRAS 4B G12C protein and some of the compounds of Tables 1 to 4 were measured in vitro using liquid chromatography-mass spectrometry (LC-MS).
Recombinant Human KRAS 4B protein containing the G12C mutation was used in compound screening experiments. This protein contained 188 amino acids in total, including an N-terminal 6-Histidine tag, followed by a Tobacco Etch Virus (TEV) tag, followed by residues 1-169 of the native KRAS 4B sequence. The exact mass of the protein was 21,310 Da as determined by mass spectrometry. The full amino acid sequence is shown below: […]
The recombinant protein was expressed in E. coli BL21 cells and purified using affinity chromatography via a Ni-NTA column. Protein stocks were nucleotide-exchanged to >95% GDP, concentrated to 4 mg/mL, and stored at −80° C. in storage buffer (50 mM HEPES pH 7.4, 50 mM NaCl, 5 mM MgCl2, 1 mM DTT). Pure KRAS 4B G12C protein was diluted to a concentration of 5 μM in Tris Buffered Saline, pH 7.4. The compounds were dissolved in DMSO and added to the diluted protein to make a 10 μM concentration. The total DMSO concentration in the reaction was 4%. The reaction was mixed by pipetting and incubated at 22° C. for one hour. Aliquots of the reaction were taken over time and diluted 2:1 in 0.1% formic acid. The intact mass of the protein samples was measured by LC-MS using a QExactive+ mass spectrometer (Thermo Scientific). An amount of 500 ng total protein was injected onto a C8 reverse phase column, eluted with a seven-minute gradient of 30%-90% acetonitrile/0.1% formic acid, and analyzed for intact mass by the mass spectrometer. Adducts identified were confirmed to be within 1 Dalton of the expected mass, and the relative ratios of free:adduct protein were used to quantify the percentage of protein bound by the compound. CAF reactions were run in duplicate, with a typical variability of ±5%.

| SMILES | % CAF 10 uM @ 60 min |
| --- | --- |
| C=CC(=O)N1CCN(c2nc(=O)n3c4c(c(-c5cc(Cl)c(F)cc5F)c(C(F)(F)F)cc24)SC[C@@H]3COC)CC1 (atropisomer, axis not shown) [Example 1108, (3S,10S)-7-(4-acryloylpiperazin-1-yl)-10-(5-chloro-2,4-difluorophenyl)-3-(methoxymethyl)-9-(trifluoromethyl)-2,3-dihydro-5H-[1,4]thiazino[2,3,4-ij]quinazolin-5-one] | 85% |
| C=CC(=O)N1C[C@H](C)N(c2nc(=O)n3c4c(c(-c5ccc(F)cc5F)c(C(F)(F)F)cc24)SCC2(COC2)C3)C[C@H]1C (atropisomer, axis not shown) [Example 1109, (S)-8′-((2S,5R)-4-acryloyl-2,5-dimethylpiperazin-1-yl)-11′-(2,4-difluorophenyl)-10′-(trifluoromethyl)-2′H,4′H,6′H-spiro[oxetane-3,3′-[1,4]thiazepino [2,3,4-ij]quinazolin]-6′-one] | 93% |
| C=CC(=O)N1C[C@H](C)N(c2nc(=O)n3c4c(c(-c5ccc(F)cc5F)c(C(F)(F)F)cc24)SCC2(COC2)C3)C[C@H]1C (atropisomer, axis not shown) [Example 1110, (R)-8′-((2S,5R)-4-acryloyl-2,5-dimethylpiperazin-1-yl)-11′-(2,4-difluorophenyl)-10′-(trifluoromethyl)-2′H,4′H,6′H-spiro[oxetane-3,3′-[1,4]thiazepino [2,3,4-ij]quinazolin]-6′-one] | 96.1% |
| C=CC(=O)N1[C@H](C)CN(c2nc(=O)n3c4c(c(-c5cc(Cl)c(F)cc5F)c(C(F)(F)F)cc24)SC[C@H](N2CCOCC2)C3)C[C@@H]1C (atropisomer, axis not shown) [Example 1114, (3R,11R)-8-((3S,5R)-4-acryloyl-3,5-dimethylpiperazin-1-yl)-11-(5-chloro-2,4-difluorophenyl)-3-morpholino-10-(trifluoromethyl)-3,4-dihydro-2H,6H-[1,4]thiazepino [2,3,4-ij]quinazolin-6-one] | 71.7% |
| C=CC(=O)N1[C@H](C)CN(c2nc(=O)n3c4c(c(-c5cc(Cl)c(F)cc5F)c(C(F)(F)F)cc24)SC[C@H](N2CCOCC2)C3)C[C@@H]1C (atropisomer, axis not shown) [Example 1115, (3R,11S)-8-((3S,5R)-4-acryloyl-3,5-dimethylpiperazin-1-yl)-11-(5-chloro-2,4-difluorophenyl)-3-morpholino-10-(trifluoromethyl)-3,4-dihydro-2H,6H-[1,4]thiazepino [2,3,4-ij]quinazolin-6-one] | 42.5% |
| C=CC(=O)N1CCN(c2nc(=O)n3c4c(c(-c5cccc6cnn(C)c56)c(C(F)(F)F)cc24)SC[C@@H]3COC)CC1 (atropisomer, axis not shown) [Example 1119, (3S,10S)-7-(4-acryloylpiperazin-1-yl)-3-(methoxymethyl)-10-(1-methyl-1H-indazol-7-yl)-9-(trifluoromethyl)-2,3-dihydro-5H-[1,4]thiazino[2,3,4-ij]quinazolin-5-one] | 99.4% |
| C=CC(=O)N1[C@H](C)CN(c2nc(=O)n3c4c(c(-c5cc(Cl)c(F)cc5F)c(C(F)(F)F)cc24)SCC2(COC2)C3)C[C@@H]1C (atropisomer, axis not shown) [Example 1124, (R)-8′-((3S,5R)-4-acryloyl-3,5-dimethylpiperazin-1-yl)-11′-(5-chloro-2,4-difluorophenyl)-10′-(trifluoromethyl)-2′H,4′H,6′H-spiro[oxetane-3,3′-[1,4]thiazepino [2,3,4-ij]quinazolin]-6′-one] | 96.2% |
| C=CC(=O)N1[C@H](C)CN(c2nc(=O)n3c4c(c(-c5cc(Cl)c(F)cc5F)c(C(F)(F)F)cc24)SCC2(COC2)C3)C[C@@H]1C (atropisomer, axis not shown) [Example 1125, (S)-8′-((3S,5R)-4-acryloyl-3,5-dimethylpiperazin-1-yl)-11′-(5-chloro-2,4-difluorophenyl)-10′-(trifluoromethyl)-2′H,4′H,6′H-spiro[oxetane-3,3′-[1,4]thiazepino [2,3,4-ij]quinazolin]-6′-one] | 92.1% |
| C=CC(=O)N1[C@H](C)CN(c2nc(=O)n3c4c(c(-c5ccc(F)c6cnn(C)c56)c(C(F)(F)F)cc24)SC[C@@H]3COC)C[C@@H]1C (atropisomer, axis not shown) [Example 1126, (3S,10S)-7-((3S,5R)-4-acryloyl-3,5-dimethylpiperazin-1-yl)-10-(4-fluoro-1-methyl-1H-indazol-7-yl)-3-(methoxymethyl)-9-(trifluoromethyl)-2,3-dihydro-5H-[1,4]thiazino [2,3,4-ij]quinazolin-5-one] | 46.8% |
| C=CC(=O)N1CCN(c2nc(=O)n3c4c(c(-c5ccc(F)cc5F)c(C(F)(F)F)cc24)SCC2(COC2)C3)CC1 (atropisomer, axis not shown) [Example 1127, (R)-8′-(4-acryloylpiperazin-1-yl)-11′-(2,4-difluorophenyl)-10′-(trifluoromethyl)-2′H,4′H,6′H-spiro[oxetane-3,3′-[1,4]thiazepino [2,3,4-ij]quinazolin]-6′-one] | 95.3% |
| C=CC(=O)N1CCN(c2nc(=O)n3c4c(c(-c5ccc(F)cc5F)c(C(F)(F)F)cc24)SCC2(COC2)C3)CC1 (atropisomer, axis not shown) [Example 1128, (S)-8′-(4-acryloylpiperazin-1-yl)-11′-(2,4-difluorophenyl)-10′-(trifluoromethyl)-2′H,4′H,6′H-spiro[oxetane-3,3′-[1,4]thiazepino [2,3,4-ij]quinazolin]-6′-one] | 65.8% |
| C=CC(=O)N1[C@H](C)CN(c2nc(=O)n3c4c(c(-c5cccc6cnn(C)c56)c(C(F)(F)F)cc24)SC[C@@H]3COC)C[C@@H]1C (atropisomer, axis not shown) [Example 1130, (3S,10S)-7-((3S,5R)-4-acryloyl-3,5-dimethylpiperazin-1-yl)-3-(methoxymethyl)-10-(1-methyl-1H-indazol-7-yl)-9-(trifluoromethyl)-2,3-dihydro-5H-[1,4]thiazino [2,3,4-ij]quinazolin-5-one] | 95.6% |
| C=CC(=O)N1[C@H](C)CN(c2nc(=O)n3c4c(c(-c5cccc6cnn(C)c56)c(C(F)(F)F)cc24)SC[C@@H]3COC)C[C@@H]1C (atropisomer, axis not shown) [Example 1131, (3S,10R)-7-((3S,5R)-4-acryloyl-3,5-dimethylpiperazin-1-yl)-3-(methoxymethyl)-10-(1-methyl-1H-indazol-7-yl)-9-(trifluoromethyl)-2,3-dihydro-5H-[1,4]thiazino [2,3,4-ij]quinazolin-5-one] | 18.2% |
| C=CC(=O)N1[C@H](C)CN(c2nc(=O)n3c4c(c(-c5cccc6cnn(C)c56)c(C(F)(F)F)cc24)SCC2(COC2)C3)C[C@@H]1C (atropisomer, axis not shown) [Example 1132, (S)-8′-((3S,5R)-4-acryloyl-3,5-dimethylpiperazin-1-yl)-11′-(1-methyl-1H-indazol-7-yl)-10′-(trifluoromethyl)-2′H,4′H,6′H-spiro[oxetane-3,3′-[1,4]thiazepino [2,3,4-ij]quinazolin]-6′-one] | 85.6% |
| C=CC(=O)N1[C@H](C)CN(c2nc(=O)n3c4c(c(-c5cccc6cnn(C)c56)c(C(F)(F)F)cc24)SCC2(COC2)C3)C[C@@H]1C (atropisomer, axis not shown) [Example 1133, (R)-8′-((3S,5R)-4-acryloyl-3,5-dimethylpiperazin-1-yl)-11′-(1-methyl-1H-indazol-7-yl)-10′-(trifluoromethyl)-2′H,4′H,6′H-spiro[oxetane-3,3′-[1,4]thiazepino [2,3,4-ij]quinazolin]-6′-one] | 54.1% |
| C=CC(=O)N1[C@H](C)CN(c2nc(=O)n3c4c(c(-c5cc(Cl)c(F)cc5F)c(C(F)(F)F)cc24)SC[C@@H](N2CCOCC2)C3)C[C@@H]1C (atropisomer, axis not shown) [Example 1135, (3S,11S)-8-((3S,5R)-4-acryloyl-3,5-dimethylpiperazin-1-yl)-11-(5-chloro-2,4-difluorophenyl)-3-morpholino-10-(trifluoromethyl)-3,4-dihydro-2H,6H-[1,4]thiazepino [2,3,4-ij]quinazolin-6-one] | 72.7% |
| C=CC(=O)N1[C@H](C)CN(c2nc(=O)n3c4c(c(-c5cc(Cl)c(F)cc5F)c(C(F)(F)F)cc24)SC[C@@H](N2CCOCC2)C3)C[C@@H]1C (atropisomer, axis not shown) [Example 1136, (3S,11R)-8-((3S,5R)-4-acryloyl-3,5-dimethylpiperazin-1-yl)-11-(5-chloro-2,4-difluorophenyl)-3-morpholino-10-(trifluoromethyl)-3,4-dihydro-2H,6H-[1,4]thiazepino [2,3,4-ij]quinazolin-6-one] | 82.7% |
